Results as given in ChEMBL document CHEMBL3804781, “Antitrypanosomal activity of 5-nitro-2-aminothiazole-based compounds” (Eur J Med Chem, 2016).
The source made the active and inactive calls. No cut-off for these calls is given here.

Columns and labels:
[1] = test system: Trypanosoma brucei; test: Activity at recombinant His-tagged Trypanosoma brucei NTR assessed as oxidation of NADH/min/mg of protein after 5 mins by spectrophotometric analysis
[2] = test system: Trypanosoma brucei brucei; test: Antitrypanosomal activity against wild type bloodstream form of Trypanosoma brucei brucei assessed as inhibition of parasite growth after 3 days by resazurin assay; type: functional, organism-based; conditions: 72 h
[3] = Selectivity index, ratio of IC50 for rat L6 cells to IC50 for amastigote stage of Trypanosoma cruzi Tulahuen C4 infected in rat L6 cells; type: toxicity, cell-based; conditions: read-out: Ratio IC50

Row | Activity [1] | IC50 [2] [µM] | SMILES | selectivity ratio [3]
1 | inactive | – | O=C(COc1ccc(-c2ccccc2)cc1)Nc1ncc([N+](=O)[O-])s1 | –
2 | Active | – | O=C(Cn1ccnc1[N+](=O)[O-])NCc1ccccc1 | –
3 | inactive | – | O=C(CN1CCN(c2ccc(Cl)c(Cl)c2)CC1)Nc1ncc([N+](=O)[O-])s1 | –

Second part, the compound before the results:

Row | SMILES | Activity [1] | IC50 [2] [µM] | selectivity ratio [3]
4 | O=C(Nc1ncc([N+](=O)[O-])s1)c1ccc(-c2ccccc2)cc1 | inactive | – | –
5 | O=C(CN1CCN(C(c2ccccc2)c2ccc(Cl)cc2)CC1)Nc1ncc([N+](=O)[O-])s1 (centres undefined) | inactive | – | –
6 | O=C(CN1CCN(c2ccccn2)CC1)Nc1ncc([N+](=O)[O-])s1 | inactive | 21.6 | –
7 | O=C(CN1CCN(c2ccc(C(F)(F)F)cc2)CC1)Nc1ncc([N+](=O)[O-])s1 | Active | – | –
8 | COc1ccc(N2CCN(CC(=O)Nc3ncc([N+](=O)[O-])s3)CC2)cc1 | – | – | 14
